According to patent publication US7723091B2 (priority 1999, dated 2010):
Where two headings read alike, the source gives them in different places. Marks after values point to notes of the source that are not given here.

Assays:
[1] = tested on: E. acervulina, E. maxima, and C. perfringens; format: in vivo, broiler chickens; conditions: Trial III; for Feed Consumption Day 0-21 / Feed Consumption Day 8-21 / Feed Conversion Day 0-21 / Feed Conversion Day 8-21 / Lesion Scores E. acer. / Lesion Scores E. max. / Live Wt. Day 21 / Weight AF/G Treatment (weight adjusted feed conversion) / Weight Gain Day 0-21 / Weight Gain Day 8-21: infected
[2] = tested on: Eimeria acervulina sporozoites; assay: In vitro invasion of BHK cells by Eimeria acervulina sporozoites; format: cell-based
Protocol: (§1) Eineria acervulina sporozoites or Eimeria tenella sporozoites and cultured baby hamster kidney (BHK) cells were prepared by published methods. See Augustine, Avian and Poultry Biology Reviews 1:113-122, 2000. For cell pretreatment, cell cultures were overlaid with dilutions of enzymes as described in Table 11, and examined for morphological changes from 5 to 45 min post overlay. After 45 minutes, the monolayer cultures were washed twice, then inoculated with untreated E. acervulina or E. tenella sporozoites. For application during infection, sporozoites were suspended in the appropriate dilution of the enzyme and inoculated immediately into the cell cultures. After 45 minutes incubation, cultures were fixed, stained, and the invasion was quantified.
(§2) Observations were made looking for changes in gross morphology of sporozoites or cells due to enzyme treatment. At the enzyme levels used in these experiments, no morphological change was noted. The sporozoite invasion of the cultured cells was measured after the two methods of enzyme treatment, as well as without enzyme treatment, by histological staining and microscopy procedures. See Augustine, supra.

Cryptosporidium = assay: SCID mouse model of Cryptosporidium infection; conditions: for Parasite load (SD) Day 21 / Parasite load (SD) Day 28 / Parasite load (SD) Day 31 / Percent Inhibition Day 21 / Percent Inhibition Day 28 / Percent Inhibition Day 31: feces
[3] = tested on: E. acervulina, E. maxima and Clostridium perfringens; format: in vivo, broiler chickens; conditions: Trial IV; infected; PI-PLC 30 U/lb, Man. 121 MU/ton, BMD 50 g/ton, salinomycin 60 g/ton
[4] = tested on: Eimeria tenella sporozoites; assay: In vitro invasion of BHK cells by Eimeria tenella sporozoites; format: cell-based
Protocol: as §1, §2

[5] = PI-PLC 10 U/lb (T5; T7 with mannanase 100 MU/ton)
[6] = PI-PLC 30 U/lb (T6; T8 with mannanase 100 MU/ton; T10 with medication)
[7] = Application of Enzyme During Infection, Test 1, recombinant PI-PLC 0.0261 U/mL
[8] = Application of Enzyme During Infection, Test 2, B. cereus PI-PLC 0.0403 U/mL, recombinant 0.261 U/mL, listed as PI-PLC from Recombinant B. megateriaum
[9] = Application of Enzyme During Infection, Test 2, recombinant PI-PLC 0.0261 U/mL
[10] = Cell Pretreatment with Enzyme Followed by Wash, Test 1, B. cereus PI-PLC 0.0403 U/mL, recombinant 0.261 U/mL, mannanase 5100 U/mL, listed as PI-PLC from Recombinant B. megateriaum
[11] = Cell Pretreatment with Enzyme Followed by Wash, Test 2, B. cereus PI-PLC 0.0403 U/mL, recombinant 0.261 U/mL, mannanase 5100 U/mL, listed as PI-PLC from Recombinant B. megateriaum
[12] = Cell Pretreatment with Enzyme Followed by Wash, Test 2, recombinant PI-PLC 0.0261 U/mL
[13] = Group A, 90 U/lb in feed, Day 3
[14] = Group A, 90 U/lb in feed, Day 7
[15] = Group A, 90 U/lb in feed, Day 10
[16] = Group A, 90 U/lb in feed, Day 14
[17] = Group A, 90 U/lb in feed, Day 17
[18] = Group A, 90 U/lb in feed, Day 21
[19] = Group A, 90 U/lb in feed, Day 24
[20] = Group B, 30 U/lb in feed, Day 3
[21] = Group B, 30 U/lb in feed, Day 7
[22] = Group B, 30 U/lb in feed, Day 10
[23] = Group B, 30 U/lb in feed, Day 14
[24] = Group B, 30 U/lb in feed, Day 17
[25] = Group B, 30 U/lb in feed, Day 21
[26] = Group B, 30 U/lb in feed, Day 24

phosphatidylinositol specific phospholipase C [Recombinant PI-PLC]
improvement in AF/G worsening present in the infected control (T3 v. T1) ([1]; infected birds, mannanase 100 MU per ton, PI-PLC in the feed): 33-41%
Feed Consumption Day 0-21 [1, 5]: 10.456^cd
Feed Consumption Day 8-21 [1, 5]: 8.228^abc
Feed Conversion Day 0-21 [1, 5]: 1.560^bc
Feed Conversion Day 8-21 [1, 5]: 1.591b^c
Lesion Scores E. acer. [1, 5]: 1.34^a
Lesion Scores E. max. [1, 5]: 1.19^bc
Live Wt. Day 21 [1, 5]: 0.635^c
Weight AF/G Treatment (weight adjusted feed conversion) [1, 5]: 1.512
Weight Gain Day 0-21 [1, 5]: 0.594^c
Weight Gain Day 8-21 [1, 5]: 0.477^b
Feed Consumption Day 0-21 [1, 6]: 10.266^d
Feed Consumption Day 8-21 [1, 6]: 7.982^c
Feed Conversion Day 0-21 [1, 6]: 1.572^b
Feed Conversion Day 8-21 [1, 6]: 1.621^ab
Lesion Scores E. acer. [1, 6]: 1.16^ab
Lesion Scores E. max. [1, 6]: 1.13^cd
Live Wt. Day 21 [1, 6]: 0.638^c
Weight AF/G Treatment (weight adjusted feed conversion) [1, 6]: 1.526
Weight Gain Day 0-21 [1, 6]: 0.597^c
Weight Gain Day 8-21 [1, 6]: 0.483^b
Invasion counts (mean ± standard error of the mean) ([2]; Application of Enzyme During Infection, Test 1, B. cereus PI-PLC 0.0403 U/mL, recombinant 0.261 U/mL, listed as PI-PLC from Recombinant B. megateriaum): 16 ± 2^c
Invasion counts (mean ± standard error of the mean) [2, 7]: 36 ± 3^b
Invasion counts (mean ± standard error of the mean) [2, 8]: 18 ± 1^bc
Invasion counts (mean ± standard error of the mean) [2, 9]: 9 ± 2^c
Invasion counts (mean ± standard error of the mean) [2, 10]: 14 ± 1^b
Invasion counts (mean ± standard error of the mean) ([2]; Cell Pretreatment with Enzyme Followed by Wash, Test 1, recombinant PI-PLC 0.0261 U/mL): 18 ± 1^ab
Invasion counts (mean ± standard error of the mean) [2, 11]: 22 ± 1^b
Invasion counts (mean ± standard error of the mean) [2, 12]: 26 ± 1^ab
Feed (g) consumed/mouse/day AVG (Cryptosporidium; [13]): 7.56 g
Weight (g) AVG (Cryptosporidium; [13]): 16.67 g
Feed (g) consumed/mouse/day AVG (Cryptosporidium; [14]): 8.31 g
Weight (g) AVG (Cryptosporidium; [14]): 16.95 g
Feed (g) consumed/mouse/day AVG (Cryptosporidium; [15]): 8.55 g
Weight (g) AVG (Cryptosporidium; [15]): 17.29 g
Feed (g) consumed/mouse/day AVG (Cryptosporidium; [16]): 7.78 g
Weight (g) AVG (Cryptosporidium; [16]): 17.43 g
Feed (g) consumed/mouse/day AVG (Cryptosporidium; [17]): 8.52 g
Weight (g) AVG (Cryptosporidium; [17]): 17.64 g
Feed (g) consumed/mouse/day AVG (Cryptosporidium; [18]): 7.89 g
Weight (g) AVG (Cryptosporidium; [18]): 18.25 g
Feed (g) consumed/mouse/day AVG (Cryptosporidium; [19]): 9.79 g
Weight (g) AVG (Cryptosporidium; [19]): 18.2 g
Feed (g) consumed/mouse/day AVG (Cryptosporidium; [20]): 6.13 g
Weight (g) AVG (Cryptosporidium; [20]): 17.055 g
Feed (g) consumed/mouse/day AVG (Cryptosporidium; [21]): 8.51 g
Weight (g) AVG (Cryptosporidium; [21]): 16.91 g
Feed (g) consumed/mouse/day AVG (Cryptosporidium; [22]): 7.93 g
Weight (g) AVG (Cryptosporidium; [22]): 17.08 g
Feed (g) consumed/mouse/day AVG (Cryptosporidium; [23]): 8.06 g
Weight (g) AVG (Cryptosporidium; [23]): 17.62 g
Feed (g) consumed/mouse/day AVG (Cryptosporidium; [24]): 8.53 g
Weight (g) AVG (Cryptosporidium; [24]): 17.84 g
Feed (g) consumed/mouse/day AVG (Cryptosporidium; [25]): 8.22 g
Weight (g) AVG (Cryptosporidium; [25]): 18.62 g
Feed (g) consumed/mouse/day AVG (Cryptosporidium; [26]): 8.3 g
Weight (g) AVG (Cryptosporidium; [26]): 18.63 g
reduction in parasite load in the treated groups (Cryptosporidium; feces at 3, 4 and 4.5 weeks post-infection, 30 or 90 U/lb): 34-54%
Parasite load (SD) Day 21 (Cryptosporidium; 30 U/lb in feed): 16.2 (4.7) oocysts/100 μl
Parasite load (SD) Day 28 (Cryptosporidium; 30 U/lb in feed): 23.4 (11)* oocysts/100 μl
Parasite load (SD) Day 31 (Cryptosporidium; 30 U/lb in feed): 74.3 (89.7)^+ oocysts/100 μl
Percent Inhibition Day 21 (Cryptosporidium; 30 U/lb in feed): 52.0%
Percent Inhibition Day 28 (Cryptosporidium; 30 U/lb in feed): 54.6%
Percent Inhibition Day 31 (Cryptosporidium; 30 U/lb in feed): 40.0%
Parasite load (SD) Day 21 (Cryptosporidium; 90 U/lb in feed): 22.7 (11.4) oocysts/100 μl
Parasite load (SD) Day 28 (Cryptosporidium; 90 U/lb in feed): 26.3 (14)* oocysts/100 μl
Parasite load (SD) Day 31 (Cryptosporidium; 90 U/lb in feed): 87.5 (52.9) oocysts/100 μl
Percent Inhibition Day 21 (Cryptosporidium; 90 U/lb in feed): 44.0%
Percent Inhibition Day 28 (Cryptosporidium; 90 U/lb in feed): 48.9%
Percent Inhibition Day 31 (Cryptosporidium; 90 U/lb in feed): 34.0%
Feed Conversion Day 0-21 [3]: 1.701
Feed Conversion Day 8-21 [3]: 1.778
Lesion Score E. acer. Upper [3]: 2.25
Lesion Score E. max. Middle [3]: 1.50
Live Weight Day 21 [3]: 0.486
Weight Gain Day 0-21 [3]: 0.451
Weight Gain Day 8-21 [3]: 0.347
Invasion counts (mean ± standard error of the mean) ([4]; Application of Enzyme During Infection, Test 1, B. cereus PI-PLC 0.0403 U/mL, recombinant 0.261 U/mL, mannanase 5100 U/mL, listed as PI-PLC from Recombinant B. megateriaum): 28 ± 2^b
Invasion counts (mean ± standard error of the mean) [4, 7]: 18 ± 1^c
Invasion counts (mean ± standard error of the mean) [4, 8]: 39 ± 4^ab
Invasion counts (mean ± standard error of the mean) [4, 9]: 29 ± 1^b
Invasion counts (mean ± standard error of the mean) [4, 10]: 30 ± 1^c
Invasion counts (mean ± standard error of the mean) [4, 11]: 15 ± 0^a
Invasion counts (mean ± standard error of the mean) [4, 12]: 17 ± 1^a
